Test results as given in patent US20020055528A1, “Artemisinin analogs having antimalarial, antiproliferative, and antitumor activities and chemoselective methods of making the same” (priority 1999, published 2002).

Tests used:
Assay type in all cases: cell-based
HOP-62 = experiment: NCI 60 cell line screen (SRB), Non-Small Cell Lung Cancer; settings: for Log10TGI: PG=0
ACHN = experiment: NCI 60 cell line screen (SRB), Renal Cancer; settings: for Log10TGI: PG=0
SN12C = experiment: NCI 60 cell line screen (SRB), Renal Cancer; settings: for Log10TGI: PG=0
HT29 = experiment: NCI 60 cell line screen (SRB), Colon Cancer; settings: for Log10TGI: PG=0
MALME-3M = experiment: NCI 60 cell line screen (SRB), Melanoma; settings: for Log10TGI: PG=0
NCI-H226 = experiment: NCI 60 cell line screen (SRB), Non-Small Cell Lung Cancer; settings: for Log10TGI: PG=0
SW-620 = experiment: NCI 60 cell line screen (SRB), Colon Cancer; settings: for Log10TGI: PG=0; for Log10GI50: PG=+50
SR = experiment: NCI 60 cell line screen (SRB), Leukemia; settings: for Log10TGI: PG=0
PC-3 = experiment: NCI 60 cell line screen (SRB), Prostate Cancer; settings: for Log10TGI: PG=0
UACC-62 = experiment: NCI 60 cell line screen (SRB), Melanoma; settings: for Log10TGI: PG=0
EKVX = experiment: NCI 60 cell line screen (SRB), Non-Small Cell Lung Cancer; settings: for Log10TGI: PG=0
TK-10 = experiment: NCI 60 cell line screen (SRB), Renal Cancer; settings: for Log10TGI: PG=0
OVCAR-8 = experiment: NCI 60 cell line screen (SRB), Ovarian Cancer; settings: for Log10TGI: PG=0
HS 578T = experiment: NCI 60 cell line screen (SRB), Breast Cancer
NCI-H460 = experiment: NCI 60 cell line screen (SRB), Non-Small Cell Lung Cancer; settings: for Log10TGI: PG=0
[1] = test system: murine keratinocyte cell line PE; experiment: Growth inhibition of PE cells, MTT assay; settings: 100 nanomolar; compared with calcitriol; FIG. 5
Method: To determine the inhibitory effect of the compositions of the present invention on cell proliferation, screening assays were performed on a murine keratinocyte cell line PE. Cell line PE was chosen for its particular sensitivity to the induction of omithine decarboxylase (ODC) activity by the extensively characterized tumor promoter TPA. Cell line PE was derived from a papilloma-induced in female SENCAR mice by a standard skin initiation/promotion protocol, see Yuspa, S. H., et al., Carcinogenesis, 7:949-958 (1986). PE cell culture medium consisted of Eagle's minimal essential medium without calcium chloride (Whittaker Bioproducts, Walkersville, Mass.) supplemented with 8% chelexed fetal calf serum and 1% antibiotic-antimycotic (Gibco BRL) and the addition of CaCI2 to 0.05 mM Ca^++
MTT [3-(4,5-dimethylthiazol-2-yl)-2,5-diphenyltetraxolium bromide] was purchased from Sigma Chemical Co. (St. Louis, Mo.), and TPA was supplied by L.C. Services (Woburn, Mass.). L-[^14C]omithine ([…]) was from Amersham/Searle Corp. (Arlington Heights, Ill.). Chemical solvents used in all assays of biological activity were of the highest grade commercially available.
Growth curves, shown in FIG. 5, for PE cells treated with calcitriol and the C-10 carbon-substituted dimers VII-f, VII-g and VII-h generated by assay for the reduction of the tetrazolium-based compound MTT, see Charmichael, et al., Cancer Res., 47:936-942 (1987). A mitochondrial dehydrogenase reduces MTT to a blue formazan product with an absorbance maximum of 505 nm in DMSO; the number of viable cells can thus be determined spectrophotometrically. PE cells were seeded at a density of 5,000 cells/well in 50 IL of medium into 96-well microtiter plates. Twelve hours later, the medium was removed, and cells were treated with 100 μL of fresh medium into which the appropriate amount of calcitriol or analog dissolved in dimethyl sulfoxide (DMSO) had been added, with the concentration of DMSO held constant at 0.1 %. […] At 24-hour intervals following the initial treatment of the cells with compounds, 0.1 mg (50 μL of a 2 mg/mL solution) of MTT was added to each well. After 4 hours, the MTT was removed and DMSO added to dissolve the blue formazan dye. Using a microtiter plate reader, the A505 was then determined and cell number calculated from blank-subtracted absorbance values.

SK-MEL-5 = experiment: NCI 60 cell line screen (SRB), Melanoma

## C[C@@H]1CC[C@H]2[C@@H](C)C(=O)O[C@@H]3O[C@]4(C)CC[C@@H]1[C@]32OO4 [Artemisinin, artemisinin]
HOP-62
  Log10TGI: >−4.00 log10M
HOP-62; PG=+50
  Log10GI50: >−4.00 log10M
HOP-62; Table IV (LC50, PG=−50)
  Log10GI50: >−4.00 log10M
ACHN
  Log10TGI: >−4.00 log10M
SN12C; SN12C
  Log10TGI: >−4.00 log10M
SN12C; SNI2C, PG=+50
  Log10GI50: −4.21 log10M
SN12C; Table IV (LC50, PG=−50), SN12C
  Log10GI50: >−4.00 log10M
HT29
  Log10TGI: >−4.00 log10M
HT29; PG=+50
  Log10GI50: >−4.00 log10M
HT29; Table IV (LC50, PG=−50)
  Log10GI50: >−4.00 log10M
MALME-3M
  Log10TGI: −4.06 log10M
MALME-3M; Table IV (LC50, PG=−50)
  Log10GI50: >−4.00 log10M
NCI-H226
  Log10TGI: >−4.00 log10M
NCI-H226; PG=+50
  Log10GI50: >−4.00 log10M
NCI-H226; Table IV (LC50, PG=−50)
  Log10GI50: >−4.00 log10M
SW-620
  Log10TGI: >−4.00 log10M
SR
  Log10TGI: >−4.00 log10M
SR; PG=+50
  Log10GI50: >−4.00 log10M
SR; Table IV (LC50, PG=−50)
  Log10GI50: >−4.00 log10M
PC-3
  Log10TGI: −4.00 log10M
UACC-62
  Log10TGI: >−4.00 log10M
UACC-62; PG=+50
  Log10GI50: >−4.00 log10M
UACC-62; Table IV (LC50, PG=−50)
  Log10GI50: >−4.00 log10M
EKVX
  Log10TGI: >−4.00 log10M
EKVX; PG=+50
  Log10GI50: −4.17 log10M
EKVX; Table IV (LC50, PG=−50)
  Log10GI50: >−4.00 log10M
TK-10
  Log10TGI: >−4.00 log10M
TK-10; PG=+50
  Log10GI50: >−4.00 log10M
TK-10; Table IV (LC50, PG=−50)
  Log10GI50: >−4.00 log10M
OVCAR-8
  Log10TGI: >−4.00 log10M
OVCAR-8; PG=+50
  Log10GI50: >−4.00 log10M
OVCAR-8; Table IV (LC50, PG=−50)
  Log10GI50: >−4.00 log10M

## CC1=C(C=Cc2cccc(C=CC3=C(C)C4CCC(C)C5CCC6(C)OOC45C(O3)O6)c2)OC2OC3(C)CCC4C(C)CCC1C24OO3 (centres unmarked) [VII-g]
HS 578T; PG=0
  Log10TGI: −4.32 log10M
HS 578T; PG=+50
  Log10GI50: −7.14 log10M
HS 578T; Table IV (LC50, PG=−50)
  Log10GI50: >−4.00 log10M
HOP-62
  Log10TGI: >−4.00 log10M
HOP-62; PG=+50
  Log10GI50: −6.45 log10M
HOP-62; Table IV (LC50, PG=−50)
  Log10GI50: >−4.00 log10M
ACHN
  Log10TGI: >−4.00 log10M
ACHN; PG=+50
  Log10 GI50 or LC50 (see conditions): −6.37 log10M
ACHN; Table IV (LC50, PG=−50)
  Log10 GI50 or LC50 (see conditions): >−4.00 log10M
SN12C; SN12C
  Log10TGI: >−4.00 log10M
SN12C; SNI2C, PG=+50
  Log10GI50: −6.69 log10M
SN12C; Table IV (LC50, PG=−50), SN12C
  Log10GI50: >−4.00 log10M
NCI-H460
  Log10TGI: >−4.00 log10M
NCI-H460; PG=+50
  Log10 GI50 or Log10 LC50: −5.13 log10M
HT29
  Log10TGI: >−4.00 log10M
HT29; PG=+50
  Log10GI50: −6.88 log10M
HT29; Table IV (LC50, PG=−50)
  Log10GI50: >−4.00 log10M
MALME-3M
  Log10TGI: −4.24 log10M
MALME-3M; PG=+50
  Log10GI50: −6.60 log10M
MALME-3M; Table IV (LC50, PG=−50)
  Log10GI50: >−4.00 log10M
NCI-H226
  Log10TGI: >−4.00 log10M
NCI-H226; PG=+50
  Log10GI50: −4.91 log10M
NCI-H226; Table IV (LC50, PG=−50)
  Log10GI50: >−4.00 log10M
SW-620
  Log10TGI: >−4.00 log10M
  Log10GI50: −7.22 log10M
SR
  Log10TGI: −7.42 log10M
SR; PG=+50
  Log10GI50: −7.42 log10M
SR; Table IV (LC50, PG=−50)
  Log10GI50: >−4.00 log10M
[1]
  antiproliferative activity in words: at least as antiproliferative as calcitriol
PC-3
  Log10TGI: >−4.00 log10M
PC-3; PG=+50
  Log10 GI50 (PG=+50) or LC50 (PG=−50): −7.32 log10M
PC-3; Table IV (LC50, PG=−50)
  Log10 GI50 (PG=+50) or LC50 (PG=−50): >−4.00 log10M
UACC-62
  Log10TGI: >−4.00 log10M
UACC-62; PG=+50
  Log10GI50: −5.46 log10M
UACC-62; Table IV (LC50, PG=−50)
  Log10GI50: >−4.00 log10M
SK-MEL-5; PG=0
  Log10TGI: −5.16 log10M
SK-MEL-5; PG=+50
  Log10 GI50 or LC50: −6.71 log10M
SK-MEL-5; Table IV (LC50, PG=−50)
  Log10 GI50 or LC50: >−4.00 log10M
EKVX
  Log10TGI: >−4.00 log10M
EKVX; PG=+50
  Log10GI50: −7.17 log10M
EKVX; Table IV (LC50, PG=−50)
  Log10GI50: >−4.00 log10M
TK-10
  Log10TGI: >−4.00 log10M
TK-10; PG=+50
  Log10GI50: −6.48 log10M
TK-10; Table IV (LC50, PG=−50)
  Log10GI50: >−4.00 log10M
OVCAR-8
  Log10TGI: >−4.00 log10M
OVCAR-8; PG=+50
  Log10GI50: −6.70 log10M
OVCAR-8; Table IV (LC50, PG=−50)
  Log10GI50: >−4.00 log10M

## CC(=O)O[C@H]1C(=O)[C@@]2(C)[C@H]([C@H](OC(=O)c3ccccc3)[C@]3(O)C[C@H](OC(=O)[C@H](O)[C@@H](NC(=O)c4ccccc4)c4ccccc4)C(C)=C1C3(C)C)[C@]1(OC(C)=O)CO[C@@H]1C[C@@H]2O [Paclitaxel, paclitaxel, reference compound]
HS 578T; PG=+50
  Log10GI50: <-13.00 log10M
HOP-62; PG=+50
  Log10GI50: −9.67 log10M
ACHN
  Log10TGI: −4.90 log10M
SN12C; SNI2C, PG=+50
  Log10GI50: −9.53 log10M
SN12C; Table IV (LC50, PG=−50), SN12C
  Log10GI50: >−4.00 log10M
NCI-H460
  Log10TGI: −4.46 log10M
HT29; PG=+50
  Log10GI50: <-13.00 log10M
HT29; Table IV (LC50, PG=−50)
  Log10GI50: −4.39 log10M
MALME-3M
  Log10TGI: −4.46 log10M
MALME-3M; Table IV (LC50, PG=−50)
  Log10GI50: −4.11 log10M
NCI-H226
  Log10TGI: −4.80 log10M
NCI-H226; Table IV (LC50, PG=−50)
  Log10GI50: −4.10 log10M
SW-620
  Log10TGI: >−4.00 log10M
  Log10GI50: −11.60 log10M
SR; Table IV (LC50, PG=−50)
  Log10GI50: >−4.00 log10M
PC-3
  Log10TGI: >−4.00 log10M
UACC-62
  Log10TGI: −4.71 log10M
UACC-62; PG=+50
  Log10GI50: −10.46 log10M
UACC-62; Table IV (LC50, PG=−50)
  Log10GI50: −4.19 log10M
TK-10; PG=+50
  Log10GI50: −7.89 log10M
OVCAR-8; PG=+50
  Log10GI50: −10.75 log10M
OVCAR-8; Table IV (LC50, PG=−50)
  Log10GI50: >−4.00 log10M
